# From publication PMC7206119, “RIP1 inhibition blocks inflammatory diseases but not tumor growth or metastases” (Cell Death and Differentiation, 2019)
# How the values were obtained:
# Test in all cases: biochemical
# Set-up in all cases: Thermo Fisher SelectScreen kinase panel: Z'-LYTE and Adapta activity, LanthaScreen binding
# ARK5 = biological target: T1, ARK5 (Homo sapiens, UniProt O60285)
# T1 construct: gene NUAK1
# In short: (§1)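 GNE684 profiled at 10 µM across 221 kinases with Z'-LYTE and Adapta activity and LanthaScreen binding formats. Also screened at 10 µM against 468 kinases in KINOMEscan scanMAX binding assay.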
# ASK1 = biological target: T2, ASK1 (Homo sapiens, UniProt Q99683)
# T2 construct: gene MAP3K5
# In short: as §1
# CK1_alpha1 = biological target: T3, CK1_alpha1 (Homo sapiens, UniProt P48729)
# T3 construct: gene CSNK1A1
# In short: as §1
# CLK3 = CLK3 (Homo sapiens, UniProt P49761)
# In short: as §1
# CaMKI = biological target: T4, CaMKI (Homo sapiens, UniProt Q14012)
# T4 construct: gene CAMK1
# In short: as §1
# CaMKI_delta = biological target: T5, CaMKI_delta (Homo sapiens, UniProt Q8IU85)
# T5 construct: gene CAMK1D
# In short: as §1
# DYRK4 = DYRK4 (Homo sapiens, UniProt Q9NR20)
# In short: as §1
# EPHA7 = EPHA7 (Homo sapiens, UniProt Q15375)
# In short: as §1
# FES = FES (Homo sapiens, UniProt P07332)
# In short: as §1
# LYN = LYN (Homo sapiens, UniProt P07948)
# In short: as §1
# MELK = MELK (Homo sapiens, UniProt Q14680)
# In short: as §1
# MST4 = biological target: T6, MST4 (Homo sapiens, UniProt Q9P289)
# T6 construct: gene STK26
# In short: as §1
# PDK1(direct) = biological target: T7, PDK1(direct) (Homo sapiens, UniProt O15530)
# T7 construct: gene PDPK1; direct
# In short: as §1
# PIM1 = PIM1 (Homo sapiens, UniProt P11309)
# In short: as §1
# PKC_alpha = biological target: T8, PKC_alpha (Homo sapiens, UniProt P17252)
# T8 construct: gene PRKCA
# In short: as §1
# PKC_delta = biological target: T9, PKC_delta (Homo sapiens, UniProt Q05655)
# T9 construct: gene PRKCD
# In short: as §1
# PKD1 = biological target: T10, PKD1 (Homo sapiens, UniProt Q15139)
# T10 construct: gene PRKD1
# In short: as §1
# PRKAA1 = PRKAA1 (Homo sapiens, UniProt Q13131)
# In short: as §1
# PhK_gamma2 = biological target: T11, PhK_gamma2 (Homo sapiens, UniProt P15735)
# T11 construct: gene PHKG2
# In short: as §1
# RSK3 = biological target: T12, RSK3 (Homo sapiens, UniProt Q15349)
# T12 construct: gene RPS6KA2
# In short: as §1
# TEC = TEC (Homo sapiens, UniProt P42680)
# In short: as §1
# TIE2 = biological target: T13, TIE2 (Homo sapiens, UniProt Q02763)
# T13 construct: gene TEK
# In short: as §1
# TSSK1 = biological target: T14, TSSK1 (Homo sapiens, UniProt Q9BXA7)
# T14 construct: gene TSSK1B
# In short: as §1
# Chain of EPHA7 (Q15375 whole entry): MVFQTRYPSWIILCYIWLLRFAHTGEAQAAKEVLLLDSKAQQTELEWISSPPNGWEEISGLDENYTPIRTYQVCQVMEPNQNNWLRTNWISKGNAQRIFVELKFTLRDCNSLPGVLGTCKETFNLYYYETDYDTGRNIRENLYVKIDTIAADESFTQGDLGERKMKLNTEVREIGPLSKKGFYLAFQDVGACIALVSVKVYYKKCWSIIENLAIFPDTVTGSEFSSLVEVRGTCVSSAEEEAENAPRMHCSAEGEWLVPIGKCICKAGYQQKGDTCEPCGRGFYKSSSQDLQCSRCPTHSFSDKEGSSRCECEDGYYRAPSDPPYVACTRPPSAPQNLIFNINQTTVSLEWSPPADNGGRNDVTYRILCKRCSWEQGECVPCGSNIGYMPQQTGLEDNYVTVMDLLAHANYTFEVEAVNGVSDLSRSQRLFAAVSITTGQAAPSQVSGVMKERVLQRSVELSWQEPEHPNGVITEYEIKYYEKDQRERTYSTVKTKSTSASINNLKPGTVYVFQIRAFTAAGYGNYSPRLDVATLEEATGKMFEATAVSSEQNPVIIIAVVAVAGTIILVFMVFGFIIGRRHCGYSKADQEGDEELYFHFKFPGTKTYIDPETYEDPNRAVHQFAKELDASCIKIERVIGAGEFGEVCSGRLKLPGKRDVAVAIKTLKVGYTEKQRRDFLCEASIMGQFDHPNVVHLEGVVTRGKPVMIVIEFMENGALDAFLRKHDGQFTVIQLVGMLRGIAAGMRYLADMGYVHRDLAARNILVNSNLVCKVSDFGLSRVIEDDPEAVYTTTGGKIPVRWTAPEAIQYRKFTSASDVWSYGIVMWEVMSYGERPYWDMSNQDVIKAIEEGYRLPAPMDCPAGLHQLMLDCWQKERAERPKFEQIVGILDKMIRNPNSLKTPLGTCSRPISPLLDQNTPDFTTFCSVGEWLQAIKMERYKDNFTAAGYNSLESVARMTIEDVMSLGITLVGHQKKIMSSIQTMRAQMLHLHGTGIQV
# T7 sequence (O15530 whole entry): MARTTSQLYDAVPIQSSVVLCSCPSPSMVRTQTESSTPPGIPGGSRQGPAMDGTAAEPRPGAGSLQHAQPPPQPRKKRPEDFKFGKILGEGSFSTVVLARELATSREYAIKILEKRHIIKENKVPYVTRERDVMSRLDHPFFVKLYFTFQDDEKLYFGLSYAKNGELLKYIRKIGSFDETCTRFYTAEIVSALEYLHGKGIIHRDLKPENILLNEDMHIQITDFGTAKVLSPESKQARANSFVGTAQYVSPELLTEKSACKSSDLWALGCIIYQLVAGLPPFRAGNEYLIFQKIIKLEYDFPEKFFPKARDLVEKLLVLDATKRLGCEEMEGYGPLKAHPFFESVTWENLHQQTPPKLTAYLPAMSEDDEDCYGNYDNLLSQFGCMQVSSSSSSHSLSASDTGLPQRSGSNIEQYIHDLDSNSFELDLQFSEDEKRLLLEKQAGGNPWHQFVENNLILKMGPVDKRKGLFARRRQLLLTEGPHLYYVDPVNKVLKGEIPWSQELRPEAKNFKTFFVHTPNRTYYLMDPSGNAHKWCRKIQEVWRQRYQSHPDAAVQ
# T11 sequence (P15735 whole entry): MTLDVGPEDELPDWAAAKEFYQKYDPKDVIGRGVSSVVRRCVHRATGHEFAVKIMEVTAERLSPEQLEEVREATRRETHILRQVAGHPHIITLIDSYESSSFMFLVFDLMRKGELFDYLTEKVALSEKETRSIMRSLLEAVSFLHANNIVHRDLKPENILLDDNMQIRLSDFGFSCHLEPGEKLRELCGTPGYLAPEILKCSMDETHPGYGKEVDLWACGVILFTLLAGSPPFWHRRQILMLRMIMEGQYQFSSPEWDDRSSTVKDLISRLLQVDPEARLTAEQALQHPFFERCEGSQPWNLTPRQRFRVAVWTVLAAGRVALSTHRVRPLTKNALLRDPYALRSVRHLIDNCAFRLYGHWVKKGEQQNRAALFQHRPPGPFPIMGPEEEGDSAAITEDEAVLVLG
# T4 sequence (Q14012 whole entry): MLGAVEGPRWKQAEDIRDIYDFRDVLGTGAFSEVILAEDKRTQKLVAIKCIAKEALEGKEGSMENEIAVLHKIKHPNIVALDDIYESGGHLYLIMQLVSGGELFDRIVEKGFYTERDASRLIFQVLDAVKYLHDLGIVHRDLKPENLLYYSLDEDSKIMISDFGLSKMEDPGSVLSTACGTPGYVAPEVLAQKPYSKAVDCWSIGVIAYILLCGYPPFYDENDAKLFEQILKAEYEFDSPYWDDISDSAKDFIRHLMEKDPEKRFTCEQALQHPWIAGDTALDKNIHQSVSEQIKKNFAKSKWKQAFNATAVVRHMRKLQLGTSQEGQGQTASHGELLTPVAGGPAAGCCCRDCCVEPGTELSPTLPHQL
# T9 sequence (Q05655 whole entry): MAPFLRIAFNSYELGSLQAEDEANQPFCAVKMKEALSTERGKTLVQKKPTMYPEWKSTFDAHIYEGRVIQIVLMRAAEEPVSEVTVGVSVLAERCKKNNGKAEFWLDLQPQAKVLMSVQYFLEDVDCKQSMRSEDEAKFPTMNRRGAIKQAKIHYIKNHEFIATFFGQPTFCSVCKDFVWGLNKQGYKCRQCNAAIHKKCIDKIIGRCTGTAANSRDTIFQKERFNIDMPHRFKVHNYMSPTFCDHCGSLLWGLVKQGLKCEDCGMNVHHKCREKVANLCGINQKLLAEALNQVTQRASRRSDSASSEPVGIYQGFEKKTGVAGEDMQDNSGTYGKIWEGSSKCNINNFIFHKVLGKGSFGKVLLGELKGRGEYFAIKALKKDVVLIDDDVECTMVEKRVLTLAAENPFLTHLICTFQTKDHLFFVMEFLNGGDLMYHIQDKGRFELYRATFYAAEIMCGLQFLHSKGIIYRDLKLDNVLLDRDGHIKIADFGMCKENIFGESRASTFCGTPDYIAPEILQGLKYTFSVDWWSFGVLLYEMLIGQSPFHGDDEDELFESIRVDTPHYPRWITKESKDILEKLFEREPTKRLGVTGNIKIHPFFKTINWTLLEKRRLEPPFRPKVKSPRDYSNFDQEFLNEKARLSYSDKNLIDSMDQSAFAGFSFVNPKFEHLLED
# Chain of PRKAA1 (Q13131 whole entry): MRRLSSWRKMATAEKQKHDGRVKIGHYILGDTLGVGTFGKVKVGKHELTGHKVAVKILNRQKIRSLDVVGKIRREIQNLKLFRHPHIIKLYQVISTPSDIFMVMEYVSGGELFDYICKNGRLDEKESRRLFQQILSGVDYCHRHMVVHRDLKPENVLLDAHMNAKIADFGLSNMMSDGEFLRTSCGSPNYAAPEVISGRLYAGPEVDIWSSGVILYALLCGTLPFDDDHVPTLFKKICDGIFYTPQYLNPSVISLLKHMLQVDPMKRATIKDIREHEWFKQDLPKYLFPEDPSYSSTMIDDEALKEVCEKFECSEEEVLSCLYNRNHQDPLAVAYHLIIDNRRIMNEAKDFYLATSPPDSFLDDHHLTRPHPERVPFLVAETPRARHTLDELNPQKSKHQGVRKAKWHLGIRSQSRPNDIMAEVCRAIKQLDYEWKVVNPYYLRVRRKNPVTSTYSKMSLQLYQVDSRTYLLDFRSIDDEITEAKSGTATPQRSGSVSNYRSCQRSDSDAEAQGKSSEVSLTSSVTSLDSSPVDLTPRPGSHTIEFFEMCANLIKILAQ
# T6 sequence (Q9P289 whole entry): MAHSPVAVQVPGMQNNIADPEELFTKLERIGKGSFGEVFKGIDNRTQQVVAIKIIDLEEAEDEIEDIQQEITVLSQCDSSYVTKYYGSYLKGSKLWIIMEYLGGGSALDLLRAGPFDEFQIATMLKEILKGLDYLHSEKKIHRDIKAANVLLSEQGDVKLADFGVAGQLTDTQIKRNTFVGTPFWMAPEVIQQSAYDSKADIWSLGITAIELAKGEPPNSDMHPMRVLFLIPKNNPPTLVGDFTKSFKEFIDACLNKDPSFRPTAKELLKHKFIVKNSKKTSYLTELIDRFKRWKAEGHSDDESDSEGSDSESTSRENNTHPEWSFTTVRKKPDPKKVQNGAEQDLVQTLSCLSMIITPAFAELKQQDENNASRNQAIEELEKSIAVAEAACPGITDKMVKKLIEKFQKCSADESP
# Chain of MELK (Q14680 whole entry): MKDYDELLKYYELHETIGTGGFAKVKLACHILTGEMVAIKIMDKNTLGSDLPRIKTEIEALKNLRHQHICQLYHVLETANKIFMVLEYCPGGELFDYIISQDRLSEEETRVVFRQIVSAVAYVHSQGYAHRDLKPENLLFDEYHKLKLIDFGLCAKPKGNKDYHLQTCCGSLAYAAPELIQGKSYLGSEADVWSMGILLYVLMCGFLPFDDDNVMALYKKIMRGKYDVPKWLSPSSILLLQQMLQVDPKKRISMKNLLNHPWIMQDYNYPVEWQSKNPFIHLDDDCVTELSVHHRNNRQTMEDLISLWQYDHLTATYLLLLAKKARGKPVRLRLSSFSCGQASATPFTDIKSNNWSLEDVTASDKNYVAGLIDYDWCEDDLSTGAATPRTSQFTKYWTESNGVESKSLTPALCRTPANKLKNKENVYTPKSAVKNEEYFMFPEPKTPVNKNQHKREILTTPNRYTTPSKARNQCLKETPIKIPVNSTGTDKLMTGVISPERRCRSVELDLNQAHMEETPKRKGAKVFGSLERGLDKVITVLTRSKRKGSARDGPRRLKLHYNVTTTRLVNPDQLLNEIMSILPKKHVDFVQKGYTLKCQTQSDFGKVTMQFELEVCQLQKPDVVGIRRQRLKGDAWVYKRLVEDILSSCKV
# T3 sequence (P48729 whole entry): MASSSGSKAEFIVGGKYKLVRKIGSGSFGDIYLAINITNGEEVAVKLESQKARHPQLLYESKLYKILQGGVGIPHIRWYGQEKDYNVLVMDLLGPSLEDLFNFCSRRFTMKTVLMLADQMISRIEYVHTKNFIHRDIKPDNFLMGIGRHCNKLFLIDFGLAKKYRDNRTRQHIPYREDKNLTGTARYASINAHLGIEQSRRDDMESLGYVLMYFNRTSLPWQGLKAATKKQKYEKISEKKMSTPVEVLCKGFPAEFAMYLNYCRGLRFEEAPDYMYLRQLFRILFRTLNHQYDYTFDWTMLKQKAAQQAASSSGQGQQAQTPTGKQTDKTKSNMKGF
smiles,measurement,setting,value
"COc1cc2c(cn1)N(C)C(=O)[C@@H](NC(=O)c1nc3n(n1)[C@H](c1ccccc1)CC3)CC2 [GNE684, (S)-N-((S)-7-methoxy-1-methyl-2-oxo-2,3,4,5-tetrahydro-1H-pyrido[3,4-b]azepin-3-yl)-5-phenyl-6,7-dihydro-5H-pyrrolo[1,2-b][1,2,4]triazole-2-carboxamide]",inhibition at 10 µM,ARK5,-6.5%
same,inhibition at 10 µM,ASK1,4%
same,inhibition at 10 µM,CK1_alpha1,3%
same,inhibition at 10 µM,CLK3,1.5%
same,inhibition at 10 µM,CaMKI,-5.5%
same,inhibition at 10 µM,CaMKI_delta,7.5%
same,inhibition at 10 µM,DYRK4,2%
same,inhibition at 10 µM,EPHA7,-4%
same,inhibition at 10 µM,FES,3%
same,inhibition at 10 µM,LYN,7%
same,inhibition at 10 µM,MELK,13%
same,inhibition at 10 µM,MST4,3.5%
same,inhibition at 10 µM,PDK1(direct),5%
same,inhibition at 10 µM,PIM1,1%
same,inhibition at 10 µM,PKC_alpha,3%
same,inhibition at 10 µM,PKC_delta,8%
same,inhibition at 10 µM,PKD1,3%
same,inhibition at 10 µM,PRKAA1,-3%
same,inhibition at 10 µM,PhK_gamma2,1%
same,inhibition at 10 µM,RSK3,6%
same,inhibition at 10 µM,TEC,-1%
same,inhibition at 10 µM,TIE2,-4.5%
same,inhibition at 10 µM,TSSK1,6%
